In patent US12527781B2, “Treatment of neurodegenerative conditions by disruption of Rhes” (The Regents of the University of California, priority 2017, dated 2026):
“Also recorded” adds a separate entry of the source.

Assays:
[1] = cited from earlier work
NIH3T3 mouse fibroblasts = assay: macroautophagy flux with tandem reporter mCherry-GFP-LC3B; assay type: cell-based
[2] = tested on: Mouse cultured neurons overexpressing Rhes; assay: accumulation of phosphorylated tau in cultured neurons overexpressing Rhes; assay type: cell-based; conditions: increasing concentrations, assayed between 25 to 250 nM
Description: FIG. 1. Mouse cultured neurons overexpressing Rhes display an aberrant accumulation of phosphorylated tau. […] The two lines represent results for separate culture replications.
Mouse cultured neurons overexpressing Rhes display an aberrant accumulation of phosphorylated tau.

rTg4510 mouse [3] = assay: tau pathology in rTg4510 mice (MC1 immunoreactivity, coronal brain area, Iba1 microglia); assay type: in vivo
Description: These mice develop tau tangles in the cerebral cortex by 4 months of age and in the hippocampus by 5.5 months. By 5.5 months, the mice also lose about 60% of their hippocampal CA1 neurons. Spatial memory deficits become apparent by 2.5 to 4 months of age; however electrophysiological properties of cortical neurons are detected before the accumulation of tau pathology. […] MC1 immunoreactivity, corresponding to neurofibrillary tangles throughout hippocampus, amygdala, entorhinal cortex and cerebrocortex, was first detected at ˜16 weeks and progressed by 20 weeks to a mean of 92.99±13.626 MC1^+ cells/mm^2 in the cerebral cortex, and 67.57±13.113 cells/mm^2 in the hippocampus.
Lonafarnib treatment was initiated when the animals were ten weeks old. The drug was resuspended in 20% HBCD and gavage fed, five days on and five days off at 80 mg/Kg/day. The drug was remarkably effective in reducing MC1 immunoreactivity.

rTg4510 mouse [4] = assay: nest building / nest shredding behaviour in rTg4510 mice; assay type: in vivo; conditions: prolonged oral 80 mg/Kg/day
Description: FIG. 2. FIG. 2 is a boxplot depicting qualitative scores for mice in shredding nest material for control mice and in the tau mouse model rTg4510 expressing human mutant tau P301L, with efficient shredding scored at 3.5 or higher. Control litter-mates where able to shred their nest material efficiently while rTg4510 mice lost their ability in an age-related matter (score less than 1).
As transgenic mice age, they display progressive worsening that begins with impaired marble burial and nest shredding and by 30 weeks progresses to hyperexcitability, restlessness in response to human approach and obsessive circling. […] Nest building was assessed at 20 weeks. […] At five weeks, littermate controls and transgenic mice produced nests with similar scores.

[5] = tested on: lysosomal protein degradation; assay: proteolysis of long-half-life proteins after 3H-leucine pulse; assay type: cell-based; conditions: 48 h pulse with 3H-leucine; NH4Cl and leupeptin present
Description: To assess this possibility, proteolysis of long-half-life proteins was evaluated after a long pulse (48 h) with ^3H-leucine.

SMILES: NC(=O)N1CCC(CC(=O)N2CCC([C@H]3c4ncc(Br)cc4CCc4cc(Cl)cc(Br)c43)CC2)CC1 [Lonafarnib]
- efficacy and tolerability ([1]; dose of 100-150 mg/m2 body surface area): effective and well tolerated
- side effects in humans ([1]; humans): few side effects in humans
- number of autophagosomes (NIH3T3 mouse fibroblasts; at lower concentrations): remained unchanged
- macroautophagy flux (NIH3T3 mouse fibroblasts; basal macroautophagy, NIH3T3 mCherry-GFP-LC3B): dose-dependent increase
- macroautophagy flux in induced cells (NIH3T3 mouse fibroblasts; macroautophagy induced by paraquat or thapsigargin): did not further increase macroautophagy flux
- accumulation of phosphorylated tau [2]: reduced
- MC1+ cells/mm^2 in hippocampus (rTg4510 mouse [3]; 80 mg/Kg/day gavage, five days on and five days off from ten weeks, evaluated at 20 weeks, p=6.4×10^−3 vs vehicle): 13.38±2.615 MC1+ cells/mm^2
- MC1+ cells/mm^2 in cortex (rTg4510 mouse [3]; 80 mg/Kg/day gavage, five days on and five days off from ten weeks, evaluated at 20 weeks, p=7.2×10^−3 vs vehicle): 44.27±4.064 MC1+ cells/mm^2
- hippocampal microgliosis (Iba1) (rTg4510 mouse [3]; 20-week old transgenic mice vs age matched untreated transgenic mice): significantly reduced
- coronal brain area (rTg4510 mouse [3]; chronic treatment, 20 weeks, vs vehicle and untreated age-matched transgenic mice): significantly larger
- effect as acute intervention on tau pathology (rTg4510 mouse [3]; gavage daily for 2 weeks, 80 mg/Kg/day, 20 week-old rTg4510 mice, after tau pathology was fulminant): ineffective
- nest shredding / nest building (rTg4510 mouse [4]; absence of Doxycicline (L80), chronic intermittent from ten weeks, assessed at 20 weeks, 80 mg/kg/day): prevented the nest shredding deficit; also recorded: rescued nest building
- nest shredding (rTg4510 mouse [4]; presence of Doxycicline (L80D)): prevented the nest shredding deficit
- proteolysis effect in the presence of NH4Cl and leupeptin [5]: abolished
